Data reported in ChEMBL document CHEMBL4680369, “Synthesis of HDAC Inhibitor Libraries via Microscale Workflow” (ACS Med Chem Lett, 2021).

Experiments:
Histone deacetylase 1 [1] = target: T1, Histone deacetylase 1 (Homo sapiens, UniProt Q13547); test: Inhibition of HDAC1 (unknown origin) using compound purified by traditional preparative HPLC work-flow
Histone deacetylase 2 [2] = target: T2, Histone deacetylase 2 (Homo sapiens, UniProt Q92769); test: Inhibition of HDAC2 (unknown origin) using compound purified by traditional preparative HPLC work-flow
T2 sequence (Q92769 whole entry): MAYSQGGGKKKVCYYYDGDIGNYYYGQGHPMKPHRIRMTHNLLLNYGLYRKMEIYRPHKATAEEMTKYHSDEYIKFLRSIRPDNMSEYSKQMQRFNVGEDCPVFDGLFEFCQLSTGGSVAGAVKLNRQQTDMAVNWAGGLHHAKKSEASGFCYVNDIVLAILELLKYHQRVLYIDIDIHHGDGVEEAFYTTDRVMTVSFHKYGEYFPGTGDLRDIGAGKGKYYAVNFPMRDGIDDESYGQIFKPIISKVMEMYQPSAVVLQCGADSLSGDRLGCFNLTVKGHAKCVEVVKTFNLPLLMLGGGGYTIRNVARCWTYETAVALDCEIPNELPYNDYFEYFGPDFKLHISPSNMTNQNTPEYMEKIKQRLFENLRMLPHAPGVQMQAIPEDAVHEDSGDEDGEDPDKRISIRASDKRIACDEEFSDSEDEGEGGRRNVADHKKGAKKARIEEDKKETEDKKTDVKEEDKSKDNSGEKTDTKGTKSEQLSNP

Histone deacetylase 1 [3] = target: T1, Histone deacetylase 1; test: Inhibition of HDAC1 (unknown origin) using compound purified by microgram-scale HPLC work-flow
Histone deacetylase 2 [4] = target: T2, Histone deacetylase 2; test: Inhibition of HDAC2 (unknown origin) using compound purified by microgram-scale HPLC work-flow

T1 sequence (Q13547 whole entry): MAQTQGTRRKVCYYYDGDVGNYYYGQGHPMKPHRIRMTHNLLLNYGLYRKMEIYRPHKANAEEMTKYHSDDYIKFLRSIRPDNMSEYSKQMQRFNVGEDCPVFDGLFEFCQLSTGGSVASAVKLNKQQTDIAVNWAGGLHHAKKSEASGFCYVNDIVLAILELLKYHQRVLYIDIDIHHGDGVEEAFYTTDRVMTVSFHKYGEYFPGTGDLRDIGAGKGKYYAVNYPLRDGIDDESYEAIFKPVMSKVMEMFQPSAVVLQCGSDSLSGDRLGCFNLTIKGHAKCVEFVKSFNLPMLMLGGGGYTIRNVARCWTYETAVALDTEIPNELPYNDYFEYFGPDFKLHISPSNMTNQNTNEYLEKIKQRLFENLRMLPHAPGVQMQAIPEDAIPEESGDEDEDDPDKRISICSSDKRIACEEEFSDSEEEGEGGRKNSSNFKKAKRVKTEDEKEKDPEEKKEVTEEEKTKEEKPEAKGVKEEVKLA

Row | Compound | IC50 (Histone deacetylase 1 [1]) [nM] | IC50 (Histone deacetylase 2 [2]) [nM] | IC50 (Histone deacetylase 1 [3]) [nM] | IC50 (Histone deacetylase 2 [4]) [nM]
1 | CCC(=O)CCCCC[C@H](NC(=O)[C@H]1CC12CCN(C)CC2)c1ncc(-c2cn(C)c3ccccc23)[nH]1 | 0.5 | 2.9 |  | 
2 | CCC(=O)CCCCC[C@H](NC(=O)[C@H]1CC12CCN(C)CC2)c1ncc(-c2ccn3ncnc3c2)[nH]1 | 70 | 350 | 44 | 249
3 | CCC(=O)CCCCC[C@H](NC(=O)[C@H]1CC12CCN(CC)CC2)c1ncc(-c2cc(C(C)C)c(F)cc2OC)[nH]1 |  |  | 63 | 279
4 | CCC(=O)CCCCC[C@H](NC(=O)[C@H]1CC12CCN(C)CC2)c1ncc(-c2ccnc(N3CCOCC3)c2F)[nH]1 | 36 | 179 | 22 | 133
5 | CCOc1ncc(-c2cnc([C@H](CCCCCC(=O)CC)NC(=O)[C@H]3CC34CCN(C)CC4)[nH]2)cn1 | 143 | 749 | 100 | 583
6 | CCC(=O)CCCCC[C@H](NC(=O)[C@H]1CC12CCN(C)CC2)c1ncc(C2=CC(=O)N(C)CC2)[nH]1 | 343 | 1590 | 302 | 1660
7 | CCC(=O)CCCCC[C@H](NC(=O)[C@H]1CC12CCN(CC)CC2)c1ncc(-c2c(F)cccc2OC)[nH]1 |  |  | 72 | 370
8 | CCC(=O)CCCCC[C@H](NC(=O)[C@H]1CC12CCN(CC)CC2)c1ncc(-c2ccc(C(=O)Nc3cc(C(F)(F)F)ccn3)cc2OC)[nH]1 |  |  | 119 | 87
9 | CCC(=O)CCCCC[C@H](NC(=O)[C@H]1CC12CCN(C)CC2)c1ncc(-c2cnc(-n3cc(C)cn3)nc2)[nH]1 |  |  | 102 | 491
10 | CCC(=O)CCCCC[C@H](NC(=O)[C@H]1CC12CCN(C)CC2)c1ncc(-c2ccc3[nH]c4ccccc4c3c2)[nH]1 |  | 1.1 |  | 
11 | CCC(=O)CCCCC[C@H](NC(=O)[C@H]1CC12CCN(CC)CC2)c1ncc(-c2c(F)cc(C(=O)Nc3cc(C(F)(F)F)ccn3)cc2OC)[nH]1 |  |  | 22 | 320
12 | CCC(=O)CCCCC[C@H](NC(=O)[C@H]1CC12CCN(CC)CC2)c1ncc(-c2cc(C(=O)OC)c(F)cc2OC)[nH]1 |  |  | 31 | 154
13 | CCC(=O)CCCCC[C@H](NC(=O)[C@H]1CC12CCN(CC)CC2)c1ncc(-c2c(OC)ccc(F)c2F)[nH]1 |  |  | 609 | 1550

The remaining lines, values ahead:

Row | IC50 (Histone deacetylase 1 [1]) [nM] | IC50 (Histone deacetylase 2 [2]) [nM] | IC50 (Histone deacetylase 1 [3]) [nM] | IC50 (Histone deacetylase 2 [4]) [nM] | Compound
14 |  |  | 1.8 | 16 | CCC(=O)CCCCC[C@H](NC(=O)[C@H]1CC12CCN(CC)CC2)c1ncc(-c2cc(C(F)(F)F)ccc2OC)[nH]1
15 | 3.7 | 19 | 3.2 | 18 | CCC(=O)CCCCC[C@H](NC(=O)[C@H]1CC12CCN(C)CC2)c1ncc(-c2ccc(C)nc2OC)[nH]1
16 | 6.5 | 30 | 2.6 | 14 | CCC(=O)CCCCC[C@H](NC(=O)[C@H]1CC12CCN(C)CC2)c1ncc(-c2ccc(-c3cccnc3)nc2)[nH]1
17 | 14 | 64 | 12 | 70 | CCC(=O)CCCCC[C@H](NC(=O)[C@H]1CC12CCN(C)CC2)c1ncc(-c2ccc(-n3nc(C)cc3C)cc2)[nH]1
18 |  |  | 7.8 | 43 | CCC(=O)CCCCC[C@H](NC(=O)[C@H]1CC12CCN(CC)CC2)c1ncc(-c2cc([N+](=O)[O-])ccc2OC)[nH]1
19 |  |  | 1.1 | 9.1 | CCOC(=O)c1cc2cc(OC)c(-c3cnc([C@H](CCCCCC(=O)CC)NC(=O)[C@H]4CC45CCN(CC)CC5)[nH]3)cc2o1
20 | 28 | 161 | 14 | 92 | CCC(=O)CCCCC[C@H](NC(=O)[C@H]1CC12CCN(C)CC2)c1ncc(-c2cnc3cccnc3c2)[nH]1
21 | 9.1 | 54 | 11 | 70 | CCC(=O)CCCCC[C@H](NC(=O)[C@H]1CC12CCN(C)CC2)c1ncc(-c2ccc(C(=O)NC3CCOC3)cc2)[nH]1 (some centres not stated)
22 |  |  | 14 | 1.4 | CCC(=O)CCCCC[C@H](NC(=O)[C@H]1CC12CCN(CC)CC2)c1ncc(C2=CCC(C)N=C2OC)[nH]1 (some centres not stated)
23 |  |  | 6.9 | 39 | CCOC(=O)C1CC1c1ccc(OC)c(-c2cnc([C@H](CCCCCC(=O)CC)NC(=O)[C@H]3CC34CCN(CC)CC4)[nH]2)c1 (some centres not stated)
24 |  |  | 13 | 63 | CCC(=O)CCCCC[C@H](NC(=O)[C@H]1CC12CCN(CC)CC2)c1ncc(-c2cccc(C(F)(F)F)c2OC)[nH]1
25 |  |  | 12 | 62 | CCC(=O)CCCCC[C@H](NC(=O)[C@H]1CC12CCN(CC)CC2)c1ncc(-c2cc(C#N)ccc2OC)[nH]1
